Target: T1, SIRT1 (Homo sapiens, UniProt Q96EB6)
T1 sequence (Q96EB6 1-747): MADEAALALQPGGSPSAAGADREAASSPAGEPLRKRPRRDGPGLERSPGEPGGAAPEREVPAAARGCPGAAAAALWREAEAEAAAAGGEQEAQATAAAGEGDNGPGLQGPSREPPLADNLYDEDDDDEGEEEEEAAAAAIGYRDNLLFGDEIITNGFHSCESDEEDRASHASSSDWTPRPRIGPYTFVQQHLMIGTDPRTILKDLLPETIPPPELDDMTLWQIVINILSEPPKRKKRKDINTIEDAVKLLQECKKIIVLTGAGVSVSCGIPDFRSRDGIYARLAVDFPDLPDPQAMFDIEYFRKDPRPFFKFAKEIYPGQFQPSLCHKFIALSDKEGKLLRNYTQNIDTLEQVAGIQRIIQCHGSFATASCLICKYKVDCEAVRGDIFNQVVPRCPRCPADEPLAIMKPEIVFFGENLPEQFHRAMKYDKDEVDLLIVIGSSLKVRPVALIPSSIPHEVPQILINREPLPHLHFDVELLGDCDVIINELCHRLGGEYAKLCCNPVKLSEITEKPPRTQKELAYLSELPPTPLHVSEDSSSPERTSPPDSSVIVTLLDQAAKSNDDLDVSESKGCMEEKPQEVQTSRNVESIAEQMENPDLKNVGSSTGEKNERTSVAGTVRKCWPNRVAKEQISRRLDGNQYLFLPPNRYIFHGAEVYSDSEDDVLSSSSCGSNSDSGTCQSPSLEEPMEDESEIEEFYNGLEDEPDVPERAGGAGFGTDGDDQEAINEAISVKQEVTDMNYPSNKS
Experiment: Mass spectrometry based SIRT1 deacetylase activation assay (acetylated p53-derived peptide substrate)
Assay type: biochemical
Conditions: 0.5 μM peptide substrate, 120 μM βNAD+, 10 nM SIRT1, 25 minutes at 25° C.

Row | SMILES | EC1.5 | Fold Act. (percent maximum fold activation)
1 | O=C(Nc1cccnc1)c1cccc2[nH]c(-c3ccc(N4CCCC4)cc3C(F)F)nc12 [Compound 774] | A (EC1.5<1.0 uM) | A (Fold activation >200%)
2 | O=C(Nc1cccnn1)c1cccc2[nH]c(-c3ccc(N4CCCC4)cc3C(F)F)nc12 [Compound 775] | A (EC1.5<1.0 uM) | A (Fold activation >200%)
3 | O=C(Nc1ccncn1)c1cccc2[nH]c(-c3ccc(N4CCCC4)cc3C(F)F)nc12 [Compound 776] | A (EC1.5<1.0 uM) | A (Fold activation >200%)
4 | O=C(Nc1ccc(OC[C@H](O)CO)cc1)c1cccc2[nH]c(-c3cccc(N4CCOCC4)c3)nc12 [Compound 777] | A (EC1.5<1.0 uM) | A (Fold activation >200%)
5 | O=C(Nc1ccc(OC[C@H](O)CO)cc1)c1cccc2[nH]c(-c3cccc(N4CCCC4)c3)nc12 [Compound 778] | A (EC1.5<1.0 uM) | A (Fold activation >200%)
6 | O=C(Nc1cccc(OC[C@H](O)CO)c1)c1cccc2[nH]c(-c3ccc(N4CC[C@H](F)C4)cc3C(F)(F)F)nc12 [Compound 779] | A (EC1.5<1.0 uM) | A (Fold activation >200%)
7 | O=C(Nc1ncc(CN2CCOCC2)s1)c1cccc2[nH]c(-c3ccccc3C(F)(F)F)nc12 [Compound 780, N-(5-(morpholinomethyl)thiazol-2-yl)-2-(2-(trifluoromethyl)phenyl)-1H-benzo[d]imidazole-4-carboxamide] | C (EC1.5 >25 uM) | B (Fold Activation <200%)
8 | O=C(Nc1cccc(OC[C@H](O)CO)c1)c1cccc2[nH]c(-c3cccc(F)c3)nc12 [Compound 781] | A (EC1.5<1.0 uM) | A (Fold activation >200%)
9 | O=C(Nc1cccc(OC[C@H](O)CO)c1)c1cccc2[nH]c(-c3cccc(Cl)c3)nc12 [Compound 782] | A (EC1.5<1.0 uM) | A (Fold activation >200%)
10 | O=C(Nc1cccc(OC[C@H](O)CO)c1)c1cccc2[nH]c(-c3ccncc3)nc12 [Compound 783] | A (EC1.5<1.0 uM) | A (Fold activation >200%)
11 | O=C(Nc1cccc(OC[C@H](O)CO)c1)c1cccc2[nH]c(-c3ccccc3F)nc12 [Compound 784] | A (EC1.5<1.0 uM) | A (Fold activation >200%)
12 | O=C(Nc1cccc(OC[C@H](O)CO)c1)c1cccc2[nH]c(-c3cc(F)ccc3F)nc12 [Compound 785] | A (EC1.5<1.0 uM) | A (Fold activation >200%)
13 | O=C(Nc1cccc(OC[C@H](O)CO)c1)c1cccc2[nH]c(-c3cc(F)cc(F)c3)nc12 [Compound 786] | A (EC1.5<1.0 uM) | A (Fold activation >200%)
14 | O=C(Nc1ccc(OC[C@@H](O)CO)cc1)c1cccc2[nH]c(-c3cccc(N4CCOCC4)c3)nc12 [Compound 787] | A (EC1.5<1.0 uM) | A (Fold activation >200%)
15 | O=C(Nc1ccc(OC[C@@H](O)CO)cc1)c1cccc2[nH]c(-c3cccc(N4CCCC4)c3)nc12 [Compound 788] | A (EC1.5<1.0 uM) | A (Fold activation >200%)
16 | Cc1nc(C)c(-c2nc3c(C(=O)Nc4ccc(OC[C@@H](O)CO)cc4)cccc3[nH]2)s1 [Compound 789] | A (EC1.5<1.0 uM) | A (Fold activation >200%)
17 | Cc1cnc(NC(=O)c2cc(N3CCCC3)cc3[nH]c(-c4ccccc4C(F)F)nc23)s1 [Compound 790] | A (EC1.5<1.0 uM) | A (Fold activation >200%)

Row | SMILES | EC1.5 | Fold Act. (percent maximum fold activation)
18 | O=C(Nc1ccccn1)c1cc(N2CCCC2)cc2[nH]c(-c3ccccc3C(F)F)nc12 [Compound 791] | A (EC1.5<1.0 uM) | A (Fold activation >200%)
19 | O=C(Nc1cccnc1)c1cc(N2CCCC2)cc2[nH]c(-c3ccccc3C(F)F)nc12 [Compound 792] | A (EC1.5<1.0 uM) | A (Fold activation >200%)
20 | Cc1cc(OC[C@H](O)CO)ccc1-c1nc2c(C(=O)Nc3nccs3)cccc2[nH]1 [Compound 793] | A (EC1.5<1.0 uM) | A (Fold activation >200%)
21 | O=C(Nc1cccc(OCC(O)CO)c1)c1cccc2[nH]c(-c3cccnc3)nc12 (centres unmarked) [Compound 794] | A (EC1.5<1.0 uM) | A (Fold activation >200%)
22 | O=C(Nc1nc(CN2CCOCC2)cs1)c1cccc2[nH]c(-c3cccnc3)nc12 [Compound 795] | C (EC1.5 >25 uM) | B (Fold Activation <200%)
23 | O=C(Nc1nc(CN2CCOCC2)cs1)c1cccc2[nH]c(-c3cccc(Cl)c3)nc12 [Compound 796] | B (EC1.5 1-25 uM) | B (Fold Activation <200%)
24 | O=C(Nc1ccc(OC[C@H](O)CO)cc1)c1cccc2[nH]c(-c3cccnc3)nc12 [Compound 797] | A (EC1.5<1.0 uM) | A (Fold activation >200%)
25 | Cc1nc(C)c(-c2nc3c(C(=O)Nc4ccc(OC[C@H](O)CO)cc4)cccc3[nH]2)s1 [Compound 798] | A (EC1.5<1.0 uM) | A (Fold activation >200%)
26 | O=C(Nc1nccs1)c1cncc2[nH]c(-c3ccc(N4CCCC4)cc3C(F)F)nc12 [Compound 799] | A (EC1.5<1.0 uM) | A (Fold activation >200%)
27 | Cc1cnc(NC(=O)c2cncc3[nH]c(-c4ccc(N5CCCC5)cc4C(F)F)nc23)s1 [Compound 800] | A (EC1.5<1.0 uM) | A (Fold activation >200%)
28 | O=C(Nc1ccccn1)c1cncc2[nH]c(-c3ccc(N4CCCC4)cc3C(F)F)nc12 [Compound 801] | A (EC1.5<1.0 uM) | A (Fold activation >200%)
29 | O=C(Nc1cccnn1)c1cncc2[nH]c(-c3ccc(N4CCCC4)cc3C(F)F)nc12 [Compound 802] | A (EC1.5<1.0 uM) | A (Fold activation >200%)
30 | O=C(Nc1ccncn1)c1cncc2[nH]c(-c3ccc(N4CCCC4)cc3C(F)F)nc12 [Compound 803] | A (EC1.5<1.0 uM) | A (Fold activation >200%)
31 | O=C(Nc1nccs1)c1cncc2[nH]c(-c3ccc(N4CCOCC4)cc3C(F)F)nc12 [Compound 804] | A (EC1.5<1.0 uM) | A (Fold activation >200%)
32 | Cc1cnc(NC(=O)c2cncc3[nH]c(-c4ccc(N5CCOCC5)cc4C(F)F)nc23)s1 [Compound 805] | A (EC1.5<1.0 uM) | A (Fold activation >200%)
33 | O=C(Nc1ccccn1)c1cncc2[nH]c(-c3ccc(N4CCOCC4)cc3C(F)F)nc12 [Compound 806] | A (EC1.5<1.0 uM) | A (Fold activation >200%)
34 | O=C(Nc1cccnc1)c1cncc2[nH]c(-c3ccc(N4CCOCC4)cc3C(F)F)nc12 [Compound 807] | A (EC1.5<1.0 uM) | A (Fold activation >200%)

Reference: US8846947B2, “Benzimidazoles and related analogs as sirtuin modulators” (GlaxoSmithKline LLC, priority 2008, dated 2014)
